{"source": "patent US20200030269A1", "about": "“ANIMAL FEED COMPOSITIONS OF ABSCISIC ACID” (Valent BioSciences LLC, priority 2010, published 2020)", "assay_type_in_all_cases": "in vivo", "key": {"[1]": {"tested_on": "Male Cobb 500 chickens", "assay": "Example 1 broiler feeding study: bird weights and feed conversion ratios", "conditions": "for Adjusted Feed/Gain Ratio, mean / Bird Weight, mean / Feed/Gain Ratio, mean: 5 ppm S-ABA in feed, dirty litter", "method": "(§1) Male Cobb 500 chickens were fed different levels of S-ABA supplemented into starter, grower, and finisher feed diets for their entire 42 day commercial life cycle. On day 43, samples of chickens (sometimes referred to as “birds”) from each treatment were processed.\n(§2) The starter, grower, and finisher basal diets represented standard commercial broiler diets. The starter and grower diets contained Salinomycin (a coccidiostat) at 40 grams/ton. The basal diets and final treatment diets were prepared using a 500 or 4,000 pound capacity vertical mixer or a 14,000 pound capacity horizontal mixer. After correcting for percent purity of S-ABA in the S-ABA dry powder, S-ABA was added to the basal diets at concentrations of 5, 50, or 500 ppm (4.6, 46, or 455 grams of S-ABA/ton). Control treatments included (1) commercial diet only and (2) commercial diet supplemented with antibiotics (bacitracin methylene disalicylate (BMD), and STAFAC® virginiamycin (hereinafter “Stafac”). STAFAC is a registered trademark of Phibro Animal Health Corporation). All feed diets were pelleted at ˜65° C. or below.\n(§3) A 90-pen test facility was divided into 10 blocks containing 9 pens per block. Treatments were assigned to the pens using a complete randomized block design. Birds were assigned to the pens randomly. Specific treatment groups were as follows:\nFeed was provided ad libitum throughout the study via one handing, ˜17-inch diameter tube feeder per pen. Chick feeder trays were placed in each pen for approximately the first 4 days. Feed added and removed from pens was weighed and recorded from day 0 to day 42. Diet changes were conducted at the same time for all pens. The feeding period for each diet was as shown below:\nBirds were weighed by pen at 0, 7, 14, 21, 28, 35, and 42 days of age. The feed remaining in each pen was weighed and recorded on study day 0, 7, 14, 21, 28, 35, and 42 days of age. The feed intake during days 0-7, 0-14, 0-21, 0-28, 0-35, and 0-42 was calculated.\nPerformance data was summarized by average weight per bird at each body weights measurement period. The average feed conversion was calculated for each respective body weight period using the total feed consumption in a pen divided by the total weight of surviving birds (i.e. days 0-7, 0-14, 0-21, etc.). Adjusted feed conversion was calculated using the total feed consumption in a pen divided by the total weight of surviving birds and weight of birds that died or were removed from that pen."}, "[2]": {"tested_on": "Male Cobb 500 chickens", "assay": "Example 1 broiler feeding study: digestive tract weights at processing on day 43", "conditions": "for Digestive Tract Weights, Mean Weight: dirty litter, day 43", "method": "as §1, §2, §3\nFour blocks (9 pens/block) were selected at random from each treatment. On day 42 all birds in the selected blocks were individually wing banded with a unique number. Prior to processing the birds were fasted for approximately 12 hours. Immediately after processing on day 43, digestive tract weights and Bursa of Fabricius organ weights were measured."}, "[3]": {"tested_on": "Male and female Cobb 500 chickens", "assay": "Example 2 broiler feeding study: cumulative bird mortality after 42 days", "method": "Male and female Cobb 500 chickens were fed different levels of S-ABA supplemented into starter, grower, and finisher feed diets for their entire 42 days commercial life cycle.\nThe starter, grower, and finisher basal diets represented standard commercial broiler diets. The starter and grower diets contained Salinomycin (a coccidiostat) at 40 grams/ton. The basal diets and final treatment diets were prepared using a 500 or 4,000 pound capacity vertical mixer or a 14,000 pound capacity horizontal mixer. After correcting for percent purity of S-ABA in the S-ABA dry powder, S-ABA was added to the basal diets at concentrations of 2.5, 5.0, or 7.5 ppm (2.3, 4.6, or 6.8 grams of S-ABA/ton). Control treatments included (1) commercial diet only and (2) commercial diet supplemented with antibiotics (bacitracin methylene disalicylate and Stafac). All feed diets were pelleted at ˜65° C. or below.\nA 108-pen test facility was divided into 18 blocks containing 6 pens per block. Treatments were assigned to the pens using a complete randomized block design. Birds were assigned to the pens randomly. Specific treatment groups were as follows:\n(§4) Starting on study day 0, any bird found dead or needing to be removed and sacrificed was weighed and necropsied. The probable cause of death and necropsy findings were recorded."}, "[4]": {"tested_on": "Male Cobb 500 chickens", "assay": "Example 1 broiler feeding study: cumulative bird mortality after 42 days", "method": "as §1, §2, §3, §4"}, "[5]": {"conditions": "5 ppm S-ABA in commercial feed diet versus control 1"}, "[6]": {"conditions": "commercial feed diet plus 5 ppm S-ABA, dirty litter, 42 days"}}, "note": "Several values for one entry are separate records, joined by “and”; a condition that tells them apart may be missing. Equal entries are not always repeated.", "data": [{"smiles": "CC1=CC(=O)CC(C)(C)[C@@]1(O)/C=C/C(C)=C\\C(=O)O", "note": "[S-ABA, (S)-(+)-abscisic acid]", "values": [{"measurement": "bird growth (weights) compared to the commercial feed diet (control 1)", "setting": "[1]; 5 ppm S-ABA in commercial feed", "result": "increased bird growth (weights)"}, {"measurement": "lowering of adjusted feed conversion ratios (corrected for number of surviving birds)", "setting": "[1]; [5]", "result": "1-2 points"}, {"measurement": "reduction of feed conversion ratios", "setting": "[1]; [5]", "result": "1-4 points"}, {"measurement": "Adjusted Feed/Gain Ratio, mean", "setting": "[1]; Day 7", "result": 1.4093}, {"measurement": "Bird Weight, mean", "setting": "[1]; Day 7", "result": 0.1445, "unit": "kg"}, {"measurement": "Feed/Gain Ratio, mean", "setting": "[1]; Day 7", "result": 1.4093}, {"measurement": "Adjusted Feed/Gain Ratio, mean", "setting": "[1]; Day 14", "result": 1.2854}, {"measurement": "Bird Weight, mean", "setting": "[1]; Day 14", "result": 0.3873, "unit": "kg"}, {"measurement": "Feed/Gain Ratio, mean", "setting": "[1]; Day 14", "result": 1.3400}, {"measurement": "Adjusted Feed/Gain Ratio, mean", "setting": "[1]; Day 21", "result": 1.3842}, {"measurement": "Bird Weight, mean", "setting": "[1]; Day 21", "result": 0.7899, "unit": "kg"}, {"measurement": "Feed/Gain Ratio, mean", "setting": "[1]; Day 21", "result": 1.4137}, {"measurement": "Adjusted Feed/Gain Ratio, mean", "setting": "[1]; Day 28", "result": 1.4517}, {"measurement": "Bird Weight, mean", "setting": "[1]; Day 28", "result": 1.4236, "unit": "kg"}, {"measurement": "Feed/Gain Ratio, mean", "setting": "[1]; Day 28", "result": 1.4584}, {"measurement": "Adjusted Feed/Gain Ratio, mean", "setting": "[1]; Day 35", "result": 1.5610}, {"measurement": "Bird Weight, mean", "setting": "[1]; Day 35", "result": 2.0919, "unit": "kg"}, {"measurement": "Feed/Gain Ratio, mean", "setting": "[1]; Day 35", "result": 1.5731}, {"measurement": "Adjusted Feed/Gain Ratio, mean", "setting": "[1]; Day 42", "result": 1.6691}, {"measurement": "Bird Weight, mean", "setting": "[1]; Day 42", "result": 2.7565, "unit": "kg"}, {"measurement": "Feed/Gain Ratio, mean", "setting": "[1]; Day 42", "result": 1.6861}, {"measurement": "weight of digestive tracts compared to the commercial feed diets (control 1 and control 2)", "setting": "[2]; S-ABA in the feed diet", "result": "increases the weight of digestive tracts"}, {"measurement": "Digestive Tract Weights, Mean Weight", "setting": "[2]; commercial feed diet plus 5 ppm S-ABA", "result": 86.7, "unit": "Grams"}, {"measurement": "Digestive Tract Weights, Mean Weight", "setting": "[2]; commercial feed diet plus 50 ppm S-ABA", "result": 86.6, "unit": "Grams"}, {"measurement": "Digestive Tract Weights, Mean Weight", "setting": "[2]; commercial feed diet plus 500 ppm S-ABA", "result": 88.4, "unit": "Grams"}, {"measurement": "survival rates compared to the commercial feed diet containing bacitracin methylene disalicylate and Stafac", "setting": "[3]; ABA added to commercial feed diets, 42 days", "result": "higher survival rates"}, {"measurement": "Cumulative Bird Mortality After 42 Days: Mortality", "setting": "[3]; S-ABA 2.5 ppm in feed, Female, dirty litter", "result": 2.4, "unit": "%"}, {"measurement": "Cumulative Bird Mortality After 42 Days: Mortality", "setting": "[3]; S-ABA 2.5 ppm in feed, Male, dirty litter", "result": 4.1, "unit": "%"}, {"measurement": "Cumulative Bird Mortality After 42 Days: Mortality", "setting": "[3]; S-ABA 5.0 ppm in feed, Female, dirty litter (two treatment groups)", "result": "0.4% and 1.9%"}, {"measurement": "Cumulative Bird Mortality After 42 Days: Mortality", "setting": "[3]; S-ABA 5.0 ppm in feed, Male, dirty litter (two treatment groups)", "result": "2.9% and 3.5%"}, {"measurement": "Cumulative Bird Mortality After 42 Days: Mortality", "setting": "[3]; S-ABA 7.5 ppm in feed, Female, dirty litter", "result": 2.2, "unit": "%"}, {"measurement": "Cumulative Bird Mortality After 42 Days: Mortality", "setting": "[3]; S-ABA 7.5 ppm in feed, Male, dirty litter", "result": 3.8, "unit": "%"}, {"measurement": "bird mortality compared to the control treatments", "setting": "[4]; 5 ppm S-ABA in commercial feed diets, versus control 1 and BMD/Stafac control 2", "result": "significantly (P=0.05) lower bird mortality"}, {"measurement": "Cumulative Bird Mortality After 42 Days: Died", "setting": "[4]; [6]", "result": 0}, {"measurement": "Cumulative Bird Mortality After 42 Days: Lived", "setting": "[4]; [6]", "result": 200}]}]}
